Reference: PubChem BioAssay AID2074 (Sanford-Burnham Center for Chemical Genomics, 2009)

Target: Dual specificity protein phosphatase 3 (Homo sapiens) (UniProt P51452)
Test: VHR phosphatase inhibition, SAR follow up, biochemical fluorescent readout with DiFMUP (AID 2074)
Settings: recombinant VHR phosphatase, DiFMUP fluorescence

Dual specificity protein phosphatase 3 (Homo sapiens), sequence (P51452 whole entry, looked up): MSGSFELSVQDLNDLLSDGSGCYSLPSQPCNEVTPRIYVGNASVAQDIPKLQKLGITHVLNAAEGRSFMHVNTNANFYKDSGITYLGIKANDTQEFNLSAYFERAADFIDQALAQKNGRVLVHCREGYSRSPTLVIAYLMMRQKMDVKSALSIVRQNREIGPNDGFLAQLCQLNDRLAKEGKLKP

O=C1/C(=C/c2cn(-c3ccccc3)nc2-c2ccc(OCc3ccccc3)cc2)SC(=S)N1CCS(=O)(=O)O
IC50: 78 nM

O=C1/C(=C/c2cn(-c3ccccc3)nc2-c2ccc(OCc3ccc(Cl)cc3)cc2)SC(=S)N1CCS(=O)(=O)O
IC50: 18 nM

O=C1/C(=C/c2cn(-c3ccccc3)nc2-c2ccc(Cl)cc2)SC(=S)N1CCS(=O)(=O)O
IC50: 1800 nM

COc1ccc(-c2nn(-c3ccccc3)cc2/C=C2\SC(=S)N(CCS(=O)(=O)O)C2=O)cc1
IC50: 1800 nM

O=C1/C(=C/c2cn(-c3ccccc3)nc2-c2ccc(OCc3ccccc3Cl)cc2)SC(=S)N1CCS(=O)(=O)O
IC50: 71 nM

Cc1ccc(-c2nn(-c3ccccc3)cc2/C=C2\SC(=S)N(CCS(=O)(=O)O)C2=O)cc1
IC50: 3100 nM

O=C1/C(=C/c2cn(-c3ccccc3)nc2-c2ccc(S(=O)(=O)N3CCOCC3)cc2)SC(=S)N1CCS(=O)(=O)O
IC50: 2400 nM
